# How the values were obtained:
# pKa of GLP1RA = type: physicochemical; details: weak acid
# [1] = aqueous solubility across the physiologic pH range and in simulated physiological fluids; type: physicochemical; details: across the physiologic pH range as well as in simulated physiological fluids
smiles,measurement,setting,value
"Cc1cc(-n2nc3c(c2-n2ccn(-c4ccc5c(cnn5C)c4F)c2=O)[C@H](C)N(C(=O)c2cc4cc([C@H]5CCOC(C)(C)C5)ccc4n2[C@@]2(c4noc(=O)[nH]4)C[C@@H]2C)CC3)cc(C)c1F [GLP1RA, 3-[(1S,2S)-1-[5-[(4S)-2,2-dimethyloxan-4-yl]-2-[(4S)-2-(4-fluoro-3,5-dimethylphenyl)-3-[3-(4-fluoro-1-methylindazol-5-yl)-2-oxoimidazol-1-yl]-4-methyl-6,7-dihydro-4H-pyrazolo[4,3-c]pyridine-5-carbonyl]indol-1-yl]-2-methylcyclopropyl]-4H-1,2,4-oxadiazol-5-one]",pKa,pKa of GLP1RA,5.1
same,aqueous solubility,[1],very low

# From patent US20250302809A1, “GLP1 PHARMACEUTICAL COMPOSITIONS” (Eli Lilly and Company, priority 2022, published 2025)
